From patent US5112811A, “SDK peptides and therapeutic compositions containing them” (Societe de Conseils de Recherches et d'Applications …, priority 1989, dated 1992)
Residues, ends and D or L forms follow the SMILES beside them.

Legend:
[1] = system: B lymphocytes which secrete IgM immunoglobulines; test: Humoral response in mice to sheep red blood cells (hemolysis plaque technique, Jerne method); type: in vivo, mice of B6D2F1 strain; conditions: 3 μg/kg IP; for Number of P.F.C./10^6 cells: read on day +4; for % stimulation of humoral response: versus saline
Experimental: 6-to-8 week old mice of B6D2F1 strain are sensitized, on day 0, with 0.2 ml of a sheep red blood cells suspension [10^8 cells ] in a saline solution of Hanks.
The Ser-Asp-Lys and the Pro-Ser-Asp-Lys-Pro peptides (3 μg/kg) were injected in solution physiological serum, by IP route, in 0.2 ml, at the appointed time.
On day +4, animals are killed and the number of B lymphocytes which secrete IgM immunoglobulines are counted by the hemolysis plaque technique (Jerne method).
8 mice / batch. 4 determinations / animal made test : 2 experiments / point.

[2] = system: Jurkat T cells; test: Rosettes protocol: rosette formation between Jurkat T cells and sheep red blood cells; type: cell-based
Experimental: Wash three times the red blood cells (RBC) in RPMI 1640 or RBS or Hanks +antibiotic drugs. Centrifuge for 7 minutes at 3000 rpm.
Put the cells sap in suspension. Count. Bring to 2.10^8 RBC/ml in a solution of RPMI at 20 % of Foetal Calf Serum (FCS) (4 ml formerly adsorbed on 1 ml of RBC sap, 30 minutes on an ice-bath, then centrifuge for 7 minutes at 3000 rpm and recover in sterile conditions).
Take an aliquot of Jurkat T cells in culture. Make a viability with Trypan blue.
Then take the volume of cells required for practical work. Wash the cells three times in RPMI 1640 or PBS or Hanks +antibiotic drugs. Centrifuge for 7 minutes at 900 rpm.
Put the cells sap in suspension. Count. Bring to 2.10^6 Jurkat T cells/ml of solution of RPMI at 20 % of adsorbed FCS.
Inhibiting solution =SDK (2.10^-7 mole).
Peptides to be evaluated are dissolved in RPMI 1640 at the appropriate concentration.
Place, in the tube, 200 μl of the inhibiting solution +100 μl of Jurkat T cells […] in RMPI +FCS 20 %; leave 10 minutes on an ice-bath. Add […] in RPMI +FCS 20 %.
Centrifuge for 5 minutes at 500 rpm. Leave overnight at 4° C.
Set the microscope : ocular :×6 objective :×7
Put carefully back in suspension the cells by tapping. Let it rest for a while.
Add, in the tube, 30 μl of Toluidine blue 1 % (to dye the lymphocytes). Tap gently.
Read 3 Malassex hemocytometer per experimental point.

[3] = system: Human peripheral mononuclear cells (MNC) stimulated by 0.1% PHA; test: Stimulation of T lymphocytes proliferation ([3H]thymidine DNA synthesis in PHA-stimulated MNC); type: cell-based; conditions: for DNA synthesis induced in MNC stimulated by 0.1% PHA: PBL with 0.1% PHA, 3 days; for % stimulation of DNA synthesis in MNC stimulated by 0.1% PHA: versus control (RPMI 1640)
Experimental: Dilute blood at 1/2 in PBS.
On 15 ml of Ficoll-Hypaque, put 35 ml of dilute blood.
Centrifuge 30 minutes at 1800 rpm, at room temperature.
Take the ring corresponding to mononuclear cells (MNC) back with Pasteur pipette.
Wash twice in PBS (centrifuge for 10 minutes at 1800 rpm).
Bring to 2.10^6 cells/ml with RPMI 1640 "complete" medium +10 % SVF.
PHA-M : Reconstitute a 5 ml bottle lyophylized with 5 ml of "complete" medium. Solution of 100 %. Dilute to obtain a 0.4 % solution.
SDK : Tube […] +4.35 ml "complete" medium. Solution 2.3 10^-4 M.
Then dilute successively 450 μl "medium" +50 μl of dilution.
In 96-well sterilized boxes NUNC :
50 μl of PHA 0.4 % (0.1 % final)
Incubate for 3 days at 37° C. in air/CO* atmosphere 95/5. During the last 24 hours, make a puls of [^3 H] Thymidine : 1 μci/well. Pick up the wells on filters and count with a counter.

Compound	Number of P.F.C./10^6 cells ([1]; injection at 0 h) [P.F.C./10^6 cells]	% stimulation of humoral response ([1]; injection at 0 h)	Number of P.F.C./10^6 cells ([1]; injection at +24 h) [P.F.C./10^6 cells]	Number of P.F.C./10^6 cells ([1]; injection at +48 h) [P.F.C./10^6 cells]	% stimulation of humoral response ([1]; injection at +48 h)	Number of P.F.C./10^6 cells ([1]; injection at +72 h) [P.F.C./10^6 cells]	Number of P.F.C./10^6 cells ([1]; injection at -24 h) [P.F.C./10^6 cells]	% stimulation of humoral response ([1]; injection at -24 h)	% INHIBITION of rosettes ([2]; peptide 10^-4 M) [%]	% ROSETTES ([2]; peptide 10^-4 M) [%]	% INHIBITION of rosettes ([2]; peptide 10^-5 M) [%]	% ROSETTES ([2]; peptide 10^-5 M) [%]	% INHIBITION of rosettes ([2]; peptide 10^-6 M) [%]	% ROSETTES ([2]; peptide 10^-6 M) [%]	% INHIBITION of rosettes ([2]; peptide 10^-7 M) [%]	% ROSETTES ([2]; peptide 10^-7 M) [%]	% INHIBITION of rosettes ([2]; peptide 10^-8 M) [%]	% ROSETTES ([2]; peptide 10^-8 M) [%]	% INHIBITION of rosettes ([2]; peptide 10^-9 M) [%]	% ROSETTES ([2]; peptide 10^-9 M) [%]	other results
NCCCC[C@H](NC(=O)[C@H](CC(=O)O)NC(=O)[C@H](CO)NC(=O)[C@@H]1CCCN1)C(=O)N1CCC[C@H]1C(=O)O [PSDKP, Pro-Ser-Asp-Lys-Pro] (H-PSDKP-OH)	915 ± 140	+99%	475 ± 82	589 ± 101	+45%	543 ± 112	630 ± 142	+42%	-37	37 ± 7	-44	33 ± 3	-54	27 ± 5	-24	45 ± 6	-19	48 ± 2	-19	48 ± 4	% ROSETTES ([2]; peptide 10^-10 M): 52 ± 5%; DNA synthesis induced in MNC stimulated by 0.1% PHA ([3]; peptide 3.10^-5 M): 54 ± 4 cpm × 10^3 /2.10^5 cells; % stimulation of DNA synthesis in MNC stimulated by 0.1% PHA ([3]; peptide 3.10^-5 M): +42%
NCCCC[C@H](NC(=O)[C@H](CC(=O)O)NC(=O)[C@@H](N)CO)C(=O)O [SDK, Ser-Asp-Lys] (H-Ser-Asp-Lys-OH)	903 ± 133	+97%	459 ± 103	673 ± 110	+65%	1073 ± 348	644 ± 170	+45%	-40	38 ± 3	-28	45 ± 4	-22	50 ± 2	-22	49 ± 2	-36	40 ± 2	-32	43 ± 1	% stimulation of humoral response ([1]; injection at +72 h): +134%; % INHIBITION of rosettes ([2]; peptide 10^-10 M): -32%; % ROSETTES ([2]; peptide 10^-10 M): 43 ± 3%; % INHIBITION of rosettes ([2]; peptide 10^-11 M): -36%; % ROSETTES ([2]; peptide 10^-11 M): 40 ± 1%; % INHIBITION of rosettes ([2]; peptide 10^-12 M): -30%; % ROSETTES ([2]; peptide 10^-12 M): 44 ± 3%; % INHIBITION of rosettes ([2]; peptide 10^-13 M): -19%; % ROSETTES ([2]; peptide 10^-13 M): 51 ± 7%; % INHIBITION of rosettes ([2]; peptide 10^-14 M): -14%; % ROSETTES ([2]; peptide 10^-14 M): 55 ± 2%; % ROSETTES ([2]; peptide 10^-15 M): 63 ± 4%; DNA synthesis induced in MNC stimulated by 0.1% PHA ([3]; peptide 3.10^-5 M): 56 ± 5 cpm × 10^3 /2.10^5 cells; % stimulation of DNA synthesis in MNC stimulated by 0.1% PHA ([3]; peptide 3.10^-5 M): +60%; DNA synthesis induced in MNC stimulated by 0.1% PHA ([3]; peptide 3.10^-10 M): 52 ± 5 cpm × 10^3 /2.10^5 cells; % stimulation of DNA synthesis in MNC stimulated by 0.1% PHA ([3]; peptide 3.10^-10 M): +30%
